The source of these data is article PMC12647218 (Scientific Reports, 2025).

For orientation: IC50 means the concentration that gives 50% inhibition. Low values mean inhibition by little substance, high ones a need for much substance. As usually defined, the Ki is a dissociation constant, usually derived from enzyme kinetics or from competition with a known ligand.

The target of assay [1] is Butyrylcholinesterase from equine serum (Equus caballus, UniProt P81908). Put plainly: BChE inhibition, modified colorimetric Ellman method. Type of assay: biochemical. A general note: Ellman's reagent forms a yellow product with free thiols.
The target in assay [2] is Acetylcholinesterase from Electrophorus electricus (electric eel) (Electrophorus electricus, UniProt O42275). Briefly: biochemical.
A further assay deals with T1, hMAO-A (Homo sapiens, UniProt P21397).
T1 sequence (P21397 1-527): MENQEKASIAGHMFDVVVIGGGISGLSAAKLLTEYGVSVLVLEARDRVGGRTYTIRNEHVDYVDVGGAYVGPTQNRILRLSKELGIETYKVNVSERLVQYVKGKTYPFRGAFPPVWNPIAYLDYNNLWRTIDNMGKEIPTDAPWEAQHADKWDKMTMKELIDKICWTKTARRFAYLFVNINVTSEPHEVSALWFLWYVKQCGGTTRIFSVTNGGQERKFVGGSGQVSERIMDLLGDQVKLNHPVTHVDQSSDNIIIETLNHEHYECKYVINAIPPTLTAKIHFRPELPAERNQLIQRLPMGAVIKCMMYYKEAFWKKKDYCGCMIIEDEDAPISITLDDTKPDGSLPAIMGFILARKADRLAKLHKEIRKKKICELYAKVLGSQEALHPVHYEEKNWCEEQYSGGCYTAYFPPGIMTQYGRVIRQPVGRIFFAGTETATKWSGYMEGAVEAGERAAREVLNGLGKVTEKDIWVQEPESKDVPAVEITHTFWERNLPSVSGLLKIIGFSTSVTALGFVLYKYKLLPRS
Briefly: hMAO-A inhibition, in vitro fluorometric technique. Type of assay: biochemical.

Bounds are passed on as bounds.

Butyrylcholinesterase from equine serum, sequence (P81908 whole entry): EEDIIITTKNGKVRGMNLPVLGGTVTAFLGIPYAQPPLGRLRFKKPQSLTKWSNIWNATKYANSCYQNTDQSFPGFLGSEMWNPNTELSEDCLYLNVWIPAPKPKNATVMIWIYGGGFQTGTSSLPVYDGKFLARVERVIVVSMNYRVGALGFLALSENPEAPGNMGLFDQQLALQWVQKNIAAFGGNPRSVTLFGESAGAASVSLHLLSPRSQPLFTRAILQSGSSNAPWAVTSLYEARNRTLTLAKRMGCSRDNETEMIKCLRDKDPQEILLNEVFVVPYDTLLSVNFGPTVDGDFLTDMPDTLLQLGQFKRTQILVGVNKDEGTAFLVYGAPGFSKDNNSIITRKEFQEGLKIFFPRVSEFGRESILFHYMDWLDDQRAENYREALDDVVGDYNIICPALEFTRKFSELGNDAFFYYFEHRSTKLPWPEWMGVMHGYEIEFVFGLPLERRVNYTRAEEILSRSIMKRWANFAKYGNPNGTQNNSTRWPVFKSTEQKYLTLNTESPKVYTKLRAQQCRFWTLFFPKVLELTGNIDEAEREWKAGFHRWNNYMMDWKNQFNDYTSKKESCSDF
Acetylcholinesterase from Electrophorus electricus (electric eel), sequence (O42275 24-633): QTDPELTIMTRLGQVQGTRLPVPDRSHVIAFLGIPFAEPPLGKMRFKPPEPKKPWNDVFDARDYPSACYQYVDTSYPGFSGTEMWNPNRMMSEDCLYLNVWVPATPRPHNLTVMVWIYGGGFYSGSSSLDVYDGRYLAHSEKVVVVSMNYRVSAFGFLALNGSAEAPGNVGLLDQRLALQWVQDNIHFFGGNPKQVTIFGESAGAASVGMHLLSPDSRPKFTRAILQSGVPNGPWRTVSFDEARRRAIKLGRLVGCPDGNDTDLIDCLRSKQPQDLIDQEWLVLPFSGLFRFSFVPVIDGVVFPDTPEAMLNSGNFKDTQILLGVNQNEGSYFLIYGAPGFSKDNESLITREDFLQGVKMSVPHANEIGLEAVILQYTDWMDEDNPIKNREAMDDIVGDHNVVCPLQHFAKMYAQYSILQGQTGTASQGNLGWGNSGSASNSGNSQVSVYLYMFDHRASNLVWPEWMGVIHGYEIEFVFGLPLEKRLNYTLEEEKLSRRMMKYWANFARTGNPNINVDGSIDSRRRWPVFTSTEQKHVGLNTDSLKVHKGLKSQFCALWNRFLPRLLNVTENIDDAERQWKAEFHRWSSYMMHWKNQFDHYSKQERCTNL

Regarding `COc1cccc2cc(/C(C)=N/NC(=O)c3cc4ccccc4cc3O)c(=O)oc12` [Compound 3a, (E)-3-Hydroxy-N’-(1-(8-methoxy-2-oxo-2 H-chromen-3-yl)ethylidene)-2-naphthohydrazide], the values for the IC50 (in assay [1]; in assay [2]; against hMAO-A) were 74.4 ± 4.98 µM, 7.4 ± 0.14 µM and 1.44 ± 0.03 µM, respectively. In addition, the inhibition constant Ki in assay [1] came to 63.3 ± 5.38 µM; in assay [2] it was 6.03 ± 0.4 µM.
For the compound `COc1cccc2cc(/C(C)=N/NC(=O)Cn3ccc4cccnc43)c(=O)oc12` [Compound 3b, (E)-N’-(1-(8-methoxy-2-oxo-2 H-chromen-3-yl)ethylidene)-2-(1 H-pyrrolo[2,3-b]pyridin-1-yl)acetohydrazide], the half-inhibitory concentration (IC50) in assay [1] was > 100 µM; in assay [2], 26.5 ± 3.42 µM; at hMAO-A, 1.97 ± 0.1 µM. The inhibition constant (Ki) in assay [1] was > 100 µM; in assay [2] it was 15.7 ± 1.37 µM.
Consider `COc1cccc2cc(/C(C)=N/NC(=O)c3ccccc3Br)c(=O)oc12` [Compound 3c, (E)-2-bromo-N’-(1-(8-methoxy-2-oxo-2 H-chromen-3-yl)ethylidene)benzohydrazide], for which the IC50 is > 100 µM in assay [1], 17 ± 1.9 µM in assay [2] and 2.03 ± 0.08 µM against hMAO-A. In addition, the Ki was > 100 µM in assay [1] and 11.3 ± 0.93 µM in assay [2].
As for `COc1cccc2cc(/C(C)=N/NC(=O)c3ccccc3C)c(=O)oc12` [Compound 3d, (E)-N’-(1-(8-methoxy-2-oxo-2 H-chromen-3-yl)ethylidene)-2-methylbenzohydrazide], the IC50 amounted to 90.1 ± 3.78 µM in assay [1], 20.2 ± 2.67 µM in assay [2] and 1.73 ± 0.05 µM at hMAO-A. Besides, the Ki is 69.9 ± 5.75 µM in assay [1] and 13.5 ± 1.24 µM in assay [2].
The like results for `COc1cccc2cc(/C(C)=N/NC(=O)c3ccc(C(F)(F)F)cc3)c(=O)oc12` [Compound 3e, (E)-N’-(1-(8-methoxy-2-oxo-2 H-chromen-3-yl)ethylidene)-4-(trifluoromethyl) benzohydrazide] were, in that order, 65.4 ± 4.55 µM, 8.01 ± 0.7 µM, 1.51 ± 0.13 µM, 57 ± 3.95 µM and 7.38 ± 1.01 µM.
For `COc1cccc2cc(/C(C)=N/NC(=O)c3ccco3)c(=O)oc12` [Compound 3f, (E)-N’-(1-(8-methoxy-2-oxo-2 H-chromen-3-yl)ethylidene)furan-2-carbohydrazide], the IC50 in assay [1] stood at 78.2 ± 5.8 µM; in assay [2], 23.8 ± 2.44 µM; at hMAO-A, 3.94 ± 0.43 µM. The Ki is 68.5 ± 5.07 µM in assay [1] and 19.6 ± 2.44 µM in assay [2].
As to `COc1cccc2cc(/C(C)=N/NC(=O)c3cccc4[nH]ccc34)c(=O)oc12` [Compound 3g, (E)-N’-(1-(8-methoxy-2-oxo-2 H-chromen-3-yl)ethylidene)-1 H-indole-4-carbohydrazide], the results for the IC50 (in assay [1]; in assay [2]; against hMAO-A) were 81.5 ± 6.02 µM, 29 ± 4.3 µM and 2.08 ± 0.15 µM, respectively. The Ki is 73.6 ± 4.66 µM in assay [1] and 21 ± 3.48 µM in assay [2].
Take `COc1cccc2cc(/C(C)=N/NC(=O)c3cccc(Cl)c3)c(=O)oc12` [Compound 3h, (E)-3-chloro-N’-(1-(8-methoxy-2-oxo-2 H-chromen-3-yl)ethylidene)benzohydrazide]: the IC50 in assay [1] worked out at 85 ± 3.48 µM; in assay [2], 41.1 ± 3.28 µM; against hMAO-A, 1.8 ± 0.26 µM. The inhibitory constant (Ki) in assay [1] was found to be 77 ± 6.92 µM; in assay [2], 25.8 ± 1.97 µM.
For the compound `COc1cccc2cc(/C(C)=N/NC(=O)Cc3ccccc3)c(=O)oc12` [Compound 3i, (E)-N’-(1-(8-methoxy-2-oxo-2 H-chromen-3-yl)ethylidene)-2-phenylacetohydrazide], the IC50 in assay [1] turned out to be 79.3 ± 5.03 µM; in assay [2], 18.4 ± 1.98 µM; against hMAO-A, 1.87 ± 0.07 µM. For the same compound, the Ki in assay [1] was 70.3 ± 3.57 µM; in assay [2], 15.4 ± 2.01 µM.
The like results for `COc1cccc2cc(/C(C)=N/NC(=O)c3cccs3)c(=O)oc12` [Compound 3j, (E)-N’-(1-(8-methoxy-2-oxo-2 H-chromen-3-yl)ethylidene)thiophene-2-carbohydrazide] were, in that order, > 100 µM, 21.9 ± 3.24 µM, 2.5 ± 0.31 µM, > 100 µM and 14.6 ± 1.05 µM.
Take `COc1cccc2cc(/C(C)=N/NC(=O)c3ccc(F)cc3)c(=O)oc12` [Compound 3k, (E)-4-fluoro-N’-(1-(8-methoxy-2-oxo-2 H-chromen-3-yl)ethylidene)benzohydrazide]: the IC50 came to 71.5 ± 3.68 µM in assay [1], 12.4 ± 0.98 µM in assay [2] and 1.83 ± 0.17 µM at hMAO-A. The figures for the Ki in assay [1] and in assay [2] were 66.1 ± 4.62 µM and 7.95 ± 0.57 µM, respectively.
Turning to `COc1cccc2cc(/C(C)=N/NC(=O)c3ccccn3)c(=O)oc12` [Compound 3l, (E)-N’-(1-(8-methoxy-2-oxo-2 H-chromen-3-yl)ethylidene)picolinohydrazide], the IC50 in assay [1] came out at 75 ± 5.3 µM; in assay [2], 8.54 ± 1.01 µM; against hMAO-A, 1.65 ± 0.34 µM. Moreover, the values for the Ki in assay [1] and in assay [2] were 69 ± 5.3 µM and 7.08 ± 0.64 µM, respectively.
The like results for `COc1cccc2cc(/C(C)=N/NC(=O)c3ccccc3Cl)c(=O)oc12` [Compound 3m, (E)-2-chloro-N’-(1-(8-methoxy-2-oxo-2 H-chromen-3-yl)ethylidene)benzohydrazide] were, in that order, 82.3 ± 6.9 µM, 14.8 ± 1.4 µM, 1.9 ± 0.3 µM, 71.4 ± 7.01 µM and 10.4 ± 0.59 µM.
